Assay [1] concerns the target T1, Dual specificity protein kinase TTK (Homo sapiens) (UniProt P33981).
T1 sequence (whole entry): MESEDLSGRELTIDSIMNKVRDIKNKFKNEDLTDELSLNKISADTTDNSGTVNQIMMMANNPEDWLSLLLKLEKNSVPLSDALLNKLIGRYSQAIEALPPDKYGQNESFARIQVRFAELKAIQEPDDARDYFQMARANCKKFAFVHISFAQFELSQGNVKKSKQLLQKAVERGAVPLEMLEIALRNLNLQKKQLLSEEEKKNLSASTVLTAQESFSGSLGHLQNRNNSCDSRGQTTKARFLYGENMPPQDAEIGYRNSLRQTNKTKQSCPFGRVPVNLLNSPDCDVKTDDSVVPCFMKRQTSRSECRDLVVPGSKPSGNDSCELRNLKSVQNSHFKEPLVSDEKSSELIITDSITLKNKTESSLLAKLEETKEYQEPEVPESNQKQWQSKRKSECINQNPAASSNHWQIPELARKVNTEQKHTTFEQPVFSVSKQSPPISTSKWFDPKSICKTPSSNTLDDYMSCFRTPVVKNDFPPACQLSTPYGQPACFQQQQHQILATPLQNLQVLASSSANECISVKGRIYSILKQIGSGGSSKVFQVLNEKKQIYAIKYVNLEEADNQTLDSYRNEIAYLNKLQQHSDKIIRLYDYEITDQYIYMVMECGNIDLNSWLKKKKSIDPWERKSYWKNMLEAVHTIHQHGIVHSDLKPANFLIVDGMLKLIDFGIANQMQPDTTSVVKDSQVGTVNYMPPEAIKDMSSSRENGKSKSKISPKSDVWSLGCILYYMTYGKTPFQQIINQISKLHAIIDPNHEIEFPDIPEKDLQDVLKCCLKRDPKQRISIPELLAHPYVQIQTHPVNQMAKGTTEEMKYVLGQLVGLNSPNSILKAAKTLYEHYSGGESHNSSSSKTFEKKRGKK
The assay is described as follows: Selectivity interaction (KinomeScan (DiscoverX)) EUB0000666a TTK. As to conditions: at 10 µM.

In assay [2] the target is Serine/threonine-protein kinase pim-3 (Homo sapiens) (UniProt Q86V86). The assay is described as follows: Selectivity interaction (KinomeScan (DiscoverX)) EUB0000655a PIM3. As to conditions: at 10 µM.
The target of assay [3] is Mitogen-activated protein kinase 14 (Homo sapiens, UniProt Q16539). As to the kind of experiment: Selectivity interaction (Radiometric kinase assay (using 10 uM ATP)) EUB0000601a MAPK14.
Chain of Mitogen-activated protein kinase 14 (Q16539 whole entry): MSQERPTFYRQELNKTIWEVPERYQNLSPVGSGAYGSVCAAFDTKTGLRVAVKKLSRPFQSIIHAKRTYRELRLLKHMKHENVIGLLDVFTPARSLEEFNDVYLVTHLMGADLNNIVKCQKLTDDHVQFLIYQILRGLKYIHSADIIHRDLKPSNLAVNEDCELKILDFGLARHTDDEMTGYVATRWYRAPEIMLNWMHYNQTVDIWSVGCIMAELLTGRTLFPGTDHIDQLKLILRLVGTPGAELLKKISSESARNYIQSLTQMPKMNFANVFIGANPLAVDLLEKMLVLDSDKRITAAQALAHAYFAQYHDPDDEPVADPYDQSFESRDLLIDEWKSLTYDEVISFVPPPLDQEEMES
Assay [4] concerns the target Serine/threonine-protein kinase 32B (Homo sapiens) (UniProt Q9NY57). As to conditions: at 10 µM.
Assay [5] addresses Casein kinase II subunit alpha (Homo sapiens, UniProt P68400). As to the kind of experiment: Selectivity interaction (Millipore kinase profiler) EUB0000124b CSNK2A1. As to conditions: at 10 µM.
In assay [6] the target is T2, Peripheral plasma membrane protein CASK (Homo sapiens) (UniProt O14936).
T2 sequence (whole entry): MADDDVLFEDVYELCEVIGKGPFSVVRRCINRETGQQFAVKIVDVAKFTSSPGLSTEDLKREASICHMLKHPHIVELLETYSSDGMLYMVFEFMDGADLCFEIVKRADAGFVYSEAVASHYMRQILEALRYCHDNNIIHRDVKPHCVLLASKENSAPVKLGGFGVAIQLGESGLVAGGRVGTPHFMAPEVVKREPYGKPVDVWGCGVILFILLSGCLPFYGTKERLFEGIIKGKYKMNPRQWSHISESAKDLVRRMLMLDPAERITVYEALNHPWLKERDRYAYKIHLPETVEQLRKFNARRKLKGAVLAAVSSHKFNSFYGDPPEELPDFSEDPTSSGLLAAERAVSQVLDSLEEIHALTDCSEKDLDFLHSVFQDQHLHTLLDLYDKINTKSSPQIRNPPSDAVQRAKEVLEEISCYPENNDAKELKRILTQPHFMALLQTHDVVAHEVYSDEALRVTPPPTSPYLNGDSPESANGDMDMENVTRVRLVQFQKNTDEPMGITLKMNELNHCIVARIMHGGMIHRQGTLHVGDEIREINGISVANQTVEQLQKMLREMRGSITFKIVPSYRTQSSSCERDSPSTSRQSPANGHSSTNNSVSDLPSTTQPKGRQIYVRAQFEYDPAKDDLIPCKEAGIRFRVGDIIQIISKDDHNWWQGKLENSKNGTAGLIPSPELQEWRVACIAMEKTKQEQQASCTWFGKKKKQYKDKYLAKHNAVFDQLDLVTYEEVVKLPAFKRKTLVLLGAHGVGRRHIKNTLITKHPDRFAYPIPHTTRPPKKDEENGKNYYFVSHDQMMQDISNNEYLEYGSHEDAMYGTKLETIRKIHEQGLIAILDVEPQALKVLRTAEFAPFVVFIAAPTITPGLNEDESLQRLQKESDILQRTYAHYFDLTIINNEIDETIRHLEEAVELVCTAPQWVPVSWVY
As to the kind of experiment: Selectivity interaction (KinomeScan (DiscoverX)) EUB0000618a CASK. As to conditions: at 10 µM.

Chain of Serine/threonine-protein kinase 32B (Homo sapiens) (Q9NY57 whole entry): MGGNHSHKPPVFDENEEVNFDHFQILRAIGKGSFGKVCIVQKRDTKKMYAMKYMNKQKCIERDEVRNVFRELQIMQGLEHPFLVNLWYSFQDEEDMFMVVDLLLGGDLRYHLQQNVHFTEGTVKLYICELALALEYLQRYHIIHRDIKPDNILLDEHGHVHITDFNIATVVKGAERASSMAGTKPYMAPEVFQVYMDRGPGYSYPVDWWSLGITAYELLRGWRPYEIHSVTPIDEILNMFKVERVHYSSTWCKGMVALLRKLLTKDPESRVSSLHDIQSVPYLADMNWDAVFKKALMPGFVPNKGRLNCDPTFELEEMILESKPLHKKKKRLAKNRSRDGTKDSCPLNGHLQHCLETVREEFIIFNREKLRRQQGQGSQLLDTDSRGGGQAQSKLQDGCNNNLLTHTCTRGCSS
Chain of Casein kinase II subunit alpha (P68400 whole entry, looked up): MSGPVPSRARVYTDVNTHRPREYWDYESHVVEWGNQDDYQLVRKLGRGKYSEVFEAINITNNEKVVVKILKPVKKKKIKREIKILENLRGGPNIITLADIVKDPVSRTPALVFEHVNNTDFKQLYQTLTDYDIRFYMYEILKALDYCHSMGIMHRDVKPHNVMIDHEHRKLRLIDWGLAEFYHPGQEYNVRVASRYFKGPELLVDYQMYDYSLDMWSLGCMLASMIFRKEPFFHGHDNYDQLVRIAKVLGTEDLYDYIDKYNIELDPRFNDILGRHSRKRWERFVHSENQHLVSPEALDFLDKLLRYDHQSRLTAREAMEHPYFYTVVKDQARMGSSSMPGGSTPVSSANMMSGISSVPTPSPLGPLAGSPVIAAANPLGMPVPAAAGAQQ

Consider `O=C(NOC[C@H](O)CO)c1ccc(F)c(F)c1Nc1ccc(I)cc1F`, for which the % of control in assay [1] came to 100%. The compound `CN(C)CCOc1ccc(-c2nc(-c3ccncc3)c(-c3ccc4c(c3)CC/C4=N\O)[nH]2)cc1` returned a % of control in assay [2] of 88%. On to `CCc1cc(Nc2nccc(-c3c(-c4ccc(OC)c(C(=O)Nc5c(F)cccc5F)c4)nc4ccccn34)n2)c(OC)cc1N1CCC(N2CCN(S(C)(=O)=O)CC2)CC1`, for which, in assay [3], the IC50 – broadly, the concentration needed to halve the response being measured – was over 11 µM. In assay [4], `CCN(CC)CCCCNc1ncc2cc(-c3cc(OC)cc(OC)c3)c(NC(=O)NC(C)(C)C)nc2n1` gave a % of control of 100%.

The compound `CC(=O)Nc1cccc(-n2c(=O)n(C3CC3)c(=O)c3c(Nc4ccc(I)cc4F)n(C)c(=O)c(C)c32)c1` had a % of control in assay [5] of 101%. Take `O[C@H]1CC[C@H](Nc2ncc3nc(Nc4c(F)cc(F)cc4F)n([C@H]4CCOC4)c3n2)CC1`: the % of control in assay [6] was 95%.

The values above are taken from ChEMBL document CHEMBL5465560, “Selectivity Literature for EUbOPEN Chemogenomic Library” (2024).
